Test results taken from PubChem BioAssay AID248 (DTP/NCI, 2004).
Several values for one entry are separate records, joined by “and”; a condition that tells them apart may be missing. Identical values can stand only once. Toxic doses and inconclusive results are not listed. Cut-off read from the data, not from the text of the source: active = T/C of 150% or more; inactive = T/C below 125%.

Test system: L1210 leukemia ip in BDF1 mice, survival T/C
Test: NCI In Vivo Anticancer Drug Screen. Data for tumor model L1210 Leukemia (intraperitoneal) in B6D2F1 (BDF1) mice
Settings: endpoint: mean survival time, higher = longer survival
Method in brief: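 Read-out is survival time, reported as the treated-group measurement over the vehicle-control measurement.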

[1] = dose: 100.0 mg/kg/injection, schedule: Q01DX009 (ip), vehicle: saline with Tween-80
[2] = dose: 200.0 mg/kg/injection, schedule: Q01DX009 (ip), vehicle: saline with Tween-80
[3] = dose: 400.0 mg/kg/injection, schedule: Q01DX009 (ip), vehicle: saline with Tween-80
[4] = dose: 100.0 mg/kg/injection, schedule: Q04DX003 (ip), vehicle: saline with Tween-80
[5] = dose: 400.0 mg/kg/injection, schedule: Q04DX003 (ip), vehicle: saline with Tween-80
[6] = dose: 100.0 mg/kg/injection, schedule: Q01DX009 (ip), vehicle: Klucel (hydroxypropylcellulose) (HPC)
[7] = dose: 100.0 mg/kg/injection, schedule: Q04DX003 (ip), vehicle: Klucel (hydroxypropylcellulose) (HPC)
[8] = dose: 200.0 mg/kg/injection, schedule: Q01DX009 (ip), vehicle: Klucel (hydroxypropylcellulose) (HPC)
[9] = dose: 200.0 mg/kg/injection, schedule: Q04DX003 (ip), vehicle: Klucel (hydroxypropylcellulose) (HPC)

Measured: T/C

CS(=O)(=O)OC1C(N=[N+]=[N-])CN(C(=O)c2ccccc2)C1CCOC(=O)c1ccccc1 (centres undefined)
inactive: dose: 100.0 mg/kg/injection, schedule: Q01DX001 (ip), vehicle: saline with Tween-80 102 % of control | dose: 200.0 mg/kg/injection, schedule: Q01DX001 (ip), vehicle: saline with Tween-80 96 % of control | dose: 400.0 mg/kg/injection, schedule: Q01DX001 (ip), vehicle: saline with Tween-80 96 % of control

COc1ccc(C)cc1NC(=O)SCc1ccccc1
inactive: [1] 100 % of control | [2] 101 % of control | [3] 94 % of control

C[Si](C)(C)C1C=Cc2ccccc2C1[Si](C)(C)C (centres undefined)
inactive: [1] 94 % of control | [2] 91 % of control | [3] 94 % of control

O=C(O)C(CSC(c1ccccc1)(c1ccccc1)c1ccccc1)N=Cc1cccs1 (centres undefined)
inactive: dose: 22.0 mg/kg/injection, schedule: Q01DX009 (ip), vehicle: saline 123 % of control | dose: 66.0 mg/kg/injection, schedule: Q01DX009 (ip), vehicle: saline with Tween-80 109 % of control | dose: 150.0 mg/kg/injection, schedule: Q01DX009 (ip), vehicle: saline with Tween-80 98 % of control | dose: 150.0 mg/kg/injection, schedule: Q01DX009 (ip), vehicle: saline 104 % of control
active: dose: 66.0 mg/kg/injection, schedule: Q01DX009 (ip), vehicle: saline 152 % of control and 214 % of control

[Br][V]([Br])[Br]
inactive: dose: 12.0 mg/kg/injection, schedule: Q01DX009 (ip), vehicle: saline 97 % of control | dose: 25.0 mg/kg/injection, schedule: Q01DX009 (ip), vehicle: saline sonified 92 % of control | dose: 25.0 mg/kg/injection, schedule: Q01DX009 (ip), vehicle: saline 93 % of control | dose: 50.0 mg/kg/injection, schedule: Q01DX009 (ip), vehicle: saline 102 % of control | dose: 100.0 mg/kg/injection, schedule: Q04DX003 (ip), vehicle: saline 102 % of control

O=C(c1ccccc1)C1(c2ccccc2)CCP(c2ccccc2)(c2ccccc2)(c2ccccc2)O1 (centres undefined)
inactive: dose: 15.0 mg/kg/injection, schedule: Q01DX001 (ip), vehicle: carboxymethylcellulose (CMC) 93 % of control | dose: 30.0 mg/kg/injection, schedule: Q01DX001 (ip), vehicle: carboxymethylcellulose (CMC) 95 % of control | dose: 60.0 mg/kg/injection, schedule: Q01DX001 (ip), vehicle: carboxymethylcellulose (CMC) 96 % of control

COc1ccccc1-n1c(C)nc2c1C(=O)c1ccccc1C2=O
inactive: [4] 96 % of control | dose: 200.0 mg/kg/injection, schedule: Q04DX003 (ip), vehicle: saline with Tween-80 93 % of control | [5] 96 % of control

c1ccc2c(c1)C1C3CCC(C3)C21 (centres undefined)
inactive: [4] 98 % of control | [5] 98 % of control

CC1=N/C(=C/c2ccccc2Cl)C(=O)O1
inactive: dose: 50.0 mg/kg/injection, schedule: Q01DX009 (ip), vehicle: Klucel (hydroxypropylcellulose) (HPC) 93 % of control | [6] 90 % of control | [7] 95 % of control | [8] 93 % of control | [9] 98 % of control

CCOC(=O)C1CCCCC1=O (centres undefined)
inactive: [6] 88 % of control | [7] 93 % of control | [8] 97 % of control | [9] 98 % of control | dose: 400.0 mg/kg/injection, schedule: Q01DX009 (ip), vehicle: Klucel (hydroxypropylcellulose) (HPC) 111 % of control | dose: 400.0 mg/kg/injection, schedule: Q04DX003 (ip), vehicle: Klucel (hydroxypropylcellulose) (HPC) 96 % of control

Nc1nc(N)c(-c2ccc(Cl)c(Cl)c2)c(/C=C/C=C/c2cccnc2)n1
inactive: dose: 16.7 mg/kg/injection, schedule: Q01DX009 (ip), vehicle: saline with Tween-80 112 % of control | dose: 37.5 mg/kg/injection, schedule: Q01DX009 (ip), vehicle: saline with Tween-80 86 % of control

CNC(=O)c1nc(C)c(C)[nH]c1=O
inactive: dose: 25.0 mg/kg/injection, schedule: Q01DX009 (ip), vehicle: water 98 % of control | dose: 50.0 mg/kg/injection, schedule: Q01DX009 (ip), vehicle: water 96 % of control | dose: 100.0 mg/kg/injection, schedule: Q01DX009 (ip), vehicle: water 98 % of control | dose: 100.0 mg/kg/injection, schedule: Q04DX003 (ip), vehicle: water 103 % of control | dose: 200.0 mg/kg/injection, schedule: Q01DX009 (ip), vehicle: water 89 % of control | dose: 200.0 mg/kg/injection, schedule: Q04DX003 (ip), vehicle: water 95 % of control

O=C(CCCCCCC(=O)C[N+]12CCC(CC1)C(O)C2)C[N+]12CCC(CC1)C(O)C2 (centres undefined)
inactive: dose: 0.15 mg/kg/injection, schedule: Q04DX003 (ip), vehicle: saline 102 % of control | dose: 0.3 mg/kg/injection, schedule: Q04DX003 (ip), vehicle: saline 100 % of control | dose: 0.6 mg/kg/injection, schedule: Q04DX003 (ip), vehicle: saline 102 % of control
